Measurements from patent US20100074884A1, “INHIBITION OF NEURONAL DAMAGE” (DUSKA SCIENTIFIC CO., priority 2005, published 2010).

Legend:
RGCs [1] = assay: Application of ATP or P2X7 agonist to isolated rat retinas, RGC damage; format: cell-based
From the text: (§1) Adult animals were decapitated and the retinas quickly dissected, flattened onto nitrocellulose filters, and maintained in oxygenated ACSF. Individual RGCs were labeled by shooting 1.3 μm tungsten particles coated with Oregon Green 488 conjugated dextran (Molecular Probes, Inc., Eugene, Oreg.) into the retina using a gene gun (Bio-Rad Laboratories, Hercules, Calif.; Kettunen, et al. (2002) J. Neurosci. Methods 119:37-43). Individual RGCs were imaged by placing the retinas in oxygenated ACSF within a custom-made 4 ml observation chamber on the stage of a Zeiss Axioplan fluorescence microscope equipped with a black and white CCD camera (Chroma DTA, Pisa, Italy). Observations were performed at room temperature (25-28° C.). A 40× Olympus immersion objective (N.A. 0.80) was used and excitation light was kept below 10% of its maximum intensity. Less than 5 RGCs per retina were analyzed to minimize light exposure. Loss of membrane integrity was assessed by adding 1.5 μM PI to the ACSF for 1 minute. Exposure of phospatidylserine on the outer membrane leaflet was evidenced by a 20 minute incubation in ACSF containing 3 μg/ml Cy3-Annexin V. In some experiments, RGCs were preincubated with oxidized-ATP (oATP) for 2 hours or with Brilliant BlueG (BBG) for 30 minutes prior to imaging.
Incubation of isolated rat retinas in 1 mM ATP induced the same effects obtained with repeated pressure increments, causing cell blebbing and uptake of PI in all the RGCs tested (35/35 tested) within 1 hour, except in α-type RGCs (0/15). The same effects were obtained applying the potent P2X7 receptor agonist 2′,3′-benzoyl-4-benzoyl-ATP (BzATP; 0.1 mM; 10/10 non-α-RGCs).

RGCs [2] = assay: Pressure-induced RGC damage in isolated rat retinas (pressure controlled incubation, imaging of living RGCs); format: cell-based; settings: for signs of pressure induced RGC damage: 7×90 (7 one-minute pulses at 90 mm Hg, then 1 hour at 12 mm Hg), 30 U/ml apyrase, 300 μM oATP or 0.5 μM BBG
Description: Pressure controlled incubation: A free-standing bioreactor chamber was used for incubation of living retinas (e.g., rat retinas) in artificial cerebrospinal fluid (ACFS; Stacy et al. (2003) J. Comp. Neurol. 456:154-166) under controlled temperature (33±0.5° C.; pH 7.4±0.1), and hydrostatic pressure conditions (10-90 mm Hg, resolution 2 mm Hg; Previti, et al. (2002) IEEE-EMBS Special Topic conference on Molecular, Cellular and Tissue Engineering, 1:157-158). Rat retinas were allowed to stabilize at 12 mm Hg for 5 minutes, and 1 minute pressure increments were applied, reaching a peak value in less than 20 seconds. Consecutive pressure transients were separated by 1 minute at 12 mm Hg. Hydrostatic pressure and pH were regulated by electronically controlled air/CO2 admission in the incubator chamber.
Imaging living RGCs: Experiments were performed on Long Evans rats according to the ARVO and national regulation on animal experimentation. All chemicals were obtained from Sigma (St. Louis, Mo.) unless otherwise specified.
as §1
RGC were incubated with the following agents: 30 U/ml apyrase (an enzyme that degrades extracellular ATP; North, supra); 300 μM oATP (an irreversible blocker of P2X receptors; North, supra); or 0.5 μM BBG (a selective and reversible inhibitor of rat P2X7 receptors; North, supra).

RGCs [3] = assay: Prevention of ATP-induced RGC damage in isolated rat retinas by P2X blockers; format: cell-based; settings: 2 hour preincubation in ACSF containing 300 μM oATP or 0.5 μM BBG
From the text: as §1, with “In some experiments, RGCs were preincubated with oxidized-ATP (oATP) for 2 hours or with Brilliant BlueG (BBG) for 30 minutes prior to imaging.” left out
Incubation of isolated rat retinas in 1 mM ATP induced the same effects obtained with repeated pressure increments, causing cell blebbing and uptake of PI in all the RGCs tested (35/35 tested) within 1 hour, except in α-type RGCs (0/15). […]

RGC light response = assay: Extracellular electrophysiological recordings in the optic tract, RGC light response after IOP transient; format: in vivo, rat
Description: Extracellular electrophysiological recordings: Experimental procedures for extracellular electrophysiological recordings are as described (Caleo et al. (2003) J. Neurosci. 23(1):287-296.). Briefly, rats aged between P25 and P30 were anesthetized with urethane (20% solution in saline; 0.7 ml/100 g of body weight, i.p.; Sigma) and placed in a stereotaxic frame. Both eyes were fixed by means of adjustable metal rings surrounding the external portion of the eye bulb. Body temperature was continuously monitored and maintained at 37° C. by a thermostat-controlled electric blanket. […]
Experiments were conducted to determine (1) whether intraocular injection of apyrase had any deleterious effects on RGC firing activity and light response, and (2) whether intraocular injection of apyrase had any effect on RGC light response recovery following a transient IOP elevation in vivo. Multi-unit spike activity evoked by a light flash was recorded in the optic tract at five minute intervals before and after an IOP pulse at 90 mmHg for 1 minute. […] Quantifying response as the average firing rate in the interval 0-2 seconds after flash onset, the average maximal response decrement was 80±16%; N=15, and the average time needed to recover at least 85% of the initial response was 32±4 minutes after the IOP spike. […]

RGCs [4] = assay: Pressure transients in vivo, PI staining of cells in the ganglion cell layer; design: species or system rat; settings: apyrase 30 U/ml intraocularly 5 minutes before pressure; 2 minutes at 50 mm Hg; retinas isolated after one hour
Description: Pressure transients in vivo: Adult Long Evans rats were deeply anaesthetized by intraperitoneal injection with Avertine (10 ml/kg body weight, 3.3% tri-bromo-ethanol, 2% tertiary amyl-alcohol in saline) and their right eyes were incannulated with a 30 Gauge needle connected to a pressure apparatus, which was a column of ACSF held at appropriate height. Eye pressure was increased to 50 mm Hg for 2 minutes by switching on the connection between the needle and the column of ACSF. A piezo-resistive pressure sensor (RS Electronics) controlled pressure values and line tightness. […] After pressure application, the animals were returned to their cages for recovery. Retinas were isolated after one hour. Control eyes were incannulated, but no pressure transient was applied. To analyze the effects of blocking eATP in vivo, 2 μl apyrase (30 U/ml intraocular concentration) were injected intraocularly 5 minutes before pressure application. To evaluate cell damage, PI labeled cells were imaged across the retinal area in 10 evenly spaced (370×250 μm^2) sample fields per retina. This dye permits assessment of membrane integrity, as cells with reduced membrane integrity are permeable to and become stained with the dyes. Retina dissection, histological and immunocytochemical treatments for long term analysis were performed as described (Galli-Resta et al. (1997) J. Neurosci. 17:7831-7838). […]

[5] = two hours after ATP application

## Nc1ncnc2c1ncn2[C@@H]1O[C@H](COP(=O)(O)OP(=O)(O)OP(=O)(O)O)[C@@H](O)[C@H]1O [ATP, adenosine 5′-triphosphate]
RGCs [1]; 1 mM ATP, within 1 hour, RGCs other than α-type
  cell blebbing and uptake of PI, affected/tested RGCs: 35/35
RGCs [1]; 1 mM ATP, within 1 hour, α-type RGCs
  cell blebbing and uptake of PI, affected/tested α-type RGCs: 0/15
RGCs [1]; [5]
  cell soma shrinkage or fragmentation, RGCs: 10/10
  phosphatidylserine exposure on the external membrane (Annexin V binding), RGCs: 7/7

## CCOc1ccc(Nc2ccc(/C(=C3C=C/C(=[N+](/CC)Cc4cccc(S(=O)(=O)[O-])c4)C=C/3C)c3ccc(N(CC)Cc4cccc(S(=O)(=O)O)c4)cc3C)cc2)cc1 [BBG, Brilliant BlueG]
RGCs [2]
  signs of pressure induced RGC damage: prevented all signs of pressure induced RGC damage
RGCs [3]
  ATP-induced RGC damage, damaged/tested non-α-RGCs: 0/15

## Nc1ncnc2c1ncn2[C@@H]1O[C@H](COP(=O)(O)OP(=O)(O)OP(=O)(O)O)[C@@H](OC(=O)c2ccc(C(=O)c3ccccc3)cc2)[C@H]1O [BzATP, 2′,3′-benzoyl-4-benzoyl-ATP]
RGCs [1]; 0.1 mM BzATP
  cell blebbing and uptake of PI, affected/tested non-α-RGCs: 10/10

## Nc1ncnc2c1ncn2[C@@H](C=O)O[C@@H](C=O)COP(=O)(O)OP(=O)(O)OP(=O)(O)O [oATP, oxidized-ATP]
RGCs [2]
  signs of pressure induced RGC damage: prevented all signs of pressure induced RGC damage
RGCs [3]
  ATP-induced RGC damage, damaged/tested non-α-RGCs: 0/20

## apyrase
RGCs [2]
  signs of pressure induced RGC damage: prevented all signs of pressure induced RGC damage
RGCs [2]; in the presence of apyrase 30 U/ml
  blebbing or permeability to PI when pressure applied: no blebbing or permeability to PI was observed
RGC light response; apyrase 30 U/ml intraocularly
  spike activity before pressure application: not significantly altering
RGC light response; apyrase 30 U/ml intraocularly 1-3 hours before IOP pulse at 90 mmHg for 1 minute, N=8
  average response recovery-time (at least 85% of initial response): 11.2 ± 2.6 min
RGCs [4]
  pressure-induced RGC damage in vivo (PI staining): totally prevented
